Target: T1, recombinant PDE IVA enzyme (Homo sapiens, UniProt P27815)
T1 construct: made in house; host or cells: yeast (inducible vector)
Assay: Isolated Recombinant Human PDE IVA Enzyme
Type: biochemical
Conditions: 0.1 μM [3H]-cAMP, pH 7.5, 30° C.
Text: 1. Isolated Recombinant Human PDE IVA Enzyme
A gene encoding human PDE IV has been cloned from human monocytes (Livi, et al., 1990, Molecular and Cellular Biology, 10, 2678). Using similar procedures we have cloned human PDE IV genes from a number of sources including eosinophils, neutrophils, lymphocytes, monocytes, brain and neuronal tissues. These genes have been transfected into yeast using an inducible vector and various recombinant proteins have been expressed which have the biochemical characteristics of PDE IV (Beavo and Reifsnyder, 1990, TIPS, 11, 150). These recombinant enzymes, particularly the human eosinophil recombinant PDE IVA, have been used as the basis of a screen for potent, selective PDE IV inhibitors.
The enzymes were purified to isoenzyme homogeneity using standard chromatographic techniques.
Phosphodiesterase activity was assayed as follows. The reaction was conducted in 150 μl of standard mixture containing (final concentrations): 50 mM 2-[[tris(hydroxymethyl)methyl]amino]-1-ethanesulphonic acid (TES) --NaOH buffer (pH 7.5), 10 mM MgCl2, 0.1 μM [^3 H]-cAMP and vehicle or various concentrations of the test compounds. […] Recovery of [^3 H]-5'AMP was determined using the [^14 C]-5'AMP and all assays were conducted in the linear range of the reaction. Results were expressed as IC50 values.

T1 sequence (P27815 whole entry): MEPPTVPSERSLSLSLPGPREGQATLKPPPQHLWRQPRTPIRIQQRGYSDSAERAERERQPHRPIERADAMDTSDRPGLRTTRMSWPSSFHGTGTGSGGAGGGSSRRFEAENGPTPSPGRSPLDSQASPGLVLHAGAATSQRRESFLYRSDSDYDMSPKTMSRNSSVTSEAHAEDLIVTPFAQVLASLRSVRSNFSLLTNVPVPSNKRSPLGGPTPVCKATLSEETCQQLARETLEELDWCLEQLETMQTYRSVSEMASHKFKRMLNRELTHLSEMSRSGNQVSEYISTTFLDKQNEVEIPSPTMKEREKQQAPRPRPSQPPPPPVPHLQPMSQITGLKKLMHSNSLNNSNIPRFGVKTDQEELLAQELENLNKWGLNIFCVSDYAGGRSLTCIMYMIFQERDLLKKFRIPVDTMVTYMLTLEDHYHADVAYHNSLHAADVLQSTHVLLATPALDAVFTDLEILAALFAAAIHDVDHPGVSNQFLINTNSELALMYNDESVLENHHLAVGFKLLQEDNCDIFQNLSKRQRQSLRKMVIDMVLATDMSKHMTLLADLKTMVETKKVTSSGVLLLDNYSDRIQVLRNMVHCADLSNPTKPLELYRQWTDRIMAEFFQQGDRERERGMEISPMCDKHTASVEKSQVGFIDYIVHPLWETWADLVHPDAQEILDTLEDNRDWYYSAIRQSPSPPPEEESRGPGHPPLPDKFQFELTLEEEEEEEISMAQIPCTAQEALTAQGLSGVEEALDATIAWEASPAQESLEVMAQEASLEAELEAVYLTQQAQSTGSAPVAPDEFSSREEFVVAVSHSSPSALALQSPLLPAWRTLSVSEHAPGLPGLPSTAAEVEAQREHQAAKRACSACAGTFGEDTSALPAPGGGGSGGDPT

IC50 [nM] | Compound
0.5 | CNC(=NC#N)Nc1cccc([C@@H](Cc2ccncc2)c2ccc(OC)c(OC3CCCC3)c2)c1 [Example 4, (R)-N"-Cyano-N'-{3-[1-[3-cyclopentyloxy-4-methoxyphenyl]-2-(4-pyridinyl)ethyl]phenyl}-N-methylamine]
3.3 | CNC(=C[N+](=O)[O-])Nc1cccc([C@@H](Cc2ccncc2)c2ccc(OC)c(OC3CCCC3)c2)c1 [Example 2, (R)-N-{(EIZ)-1-{3-[1-[3-Cyclopentyloxy-4-methoxyphenyl]-2-(4-pyridinyl)ethyl]anilino}-2-nitroethenyl}-N-methylamine]

— patent US5859034A, “Tri-substituted phenyl compounds which have useful pharmaceutical activity” (Celltech Therapeutics, Limited, priority 1996, dated 1999)
